“And” between values parts separate entries of the source, which are not always exact repeats. Identical values can stand only once.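 Exposure lasted 48 hours, with cells grown in 96-well plates and compounds tested at five concentrations. Abbreviation: GI50, concentration required for 50% inhibition of growth. TGI marks complete inhibition of growth.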
Columns and labels:
Assay in all cases: NCI tumour cell line growth inhibition, 48 h
[1] = tested on: HCC-2998 colon
[2] = tested on: PC-3 prostate
[3] = tested on: ACHN renal
[4] = tested on: HOP-92 NSCLC
[5] = tested on: SK-MEL-5 melanoma
[6] = tested on: SNB-19 CNS
[7] = tested on: UO-31 renal
[8] = tested on: HCT-116 colon
[9] = tested on: MOLT-4 leukemia
[10] = tested on: IGROV1 ovarian
[11] = tested on: M14 melanoma
[12] = tested on: UACC-62 melanoma
[13] = tested on: RPMI-8226 leukemia
[14] = tested on: NCI-H460 lung
[15] = tested on: SF-295 CNS
[16] = tested on: SK-OV-3 ovarian
[17] = tested on: HCT-15 colon
[18] = tested on: OVCAR-5 ovarian
[19] = tested on: CAKI-1 renal
[20] = tested on: SN12C renal
[21] = tested on: SK-MEL-2 melanoma
[22] = tested on: MCF7 breast
[23] = tested on: KM12 colon
[24] = tested on: SF-268 CNS
[25] = tested on: NCI/ADR-RES ovarian
[26] = tested on: EKVX NSCLC
[27] = tested on: K-562 leukemia
[28] = tested on: NCI-H23 lung
[29] = tested on: HOP-62 NSCLC
[30] = tested on: HT29 colon
[31] = tested on: DU-145 prostate
[32] = tested on: SW-620 colon
[33] = tested on: HL-60(TB) leukemia
[34] = tested on: LOX IMVI melanoma
[35] = tested on: A549 NSCLC
[36] = tested on: OVCAR-3 ovarian
[37] = tested on: MDA-MB-435
[38] = tested on: CCRF-CEM leukemia
[39] = tested on: MDA-N
[40] = tested on: U251 CNS
[41] = tested on: BT-549 breast
[42] = tested on: OVCAR-8 ovarian
[43] = tested on: 786-0 renal
[44] = tested on: COLO 205 colon
[45] = tested on: NCI-H226 lung
[46] = tested on: RXF 393 renal
[47] = tested on: SF-539 CNS
[48] = tested on: OVCAR-4 ovarian
[49] = tested on: UACC-257 melanoma
[50] = tested on: A498 renal
[51] = tested on: MALME-3M melanoma
[52] = tested on: MDA-MB-231 breast
[53] = tested on: NCI-H522 lung
[54] = tested on: TK-10 renal
[55] = tested on: SNB-75 CNS
[56] = tested on: SK-MEL-28 melanoma
[57] = tested on: T-47D breast
[58] = tested on: HS 578T breast
[59] = tested on: SR leukemia

With COC(=O)CCC(C)[C@H]1CCC2C3C(C[C@H](OC(C)=O)[C@@]21C)[C@@]1(C)CCC2(C[C@H]1C[C@H]3OC(C)=O)OOC1(CCC(C)CC1)OO2 (stereo partly specified) the TGI [1] was > 100 µM, the GI50 [2] was 2.98 µM and 7.43 µM and the TGI [2] was > 100 µM. For the same compound, the TGI [3] was 61.7 µM and > 100 µM, the TGI [4] was 7.63 µM and 69.9 µM and the TGI [5] was > 100 µM. For the same compound, the TGI [6] was > 100 µM, the GI50 [7] was 4.13 µM and 11.2 µM and the TGI [7] was 17.8 µM and 36.4 µM. The TGI [8] was > 100 µM, the GI50 [9] was 2.86 µM and 25.5 µM and the TGI [9] was > 100 µM. The GI50 [10] was 3.82 µM and 10.1 µM, the TGI [10] was 16.4 µM and 27.3 µM and the TGI [11] was > 100 µM. For the same compound, the TGI [12] was > 100 µM, the GI50 [13] was 1.28 µM and 3.15 µM and the TGI [13] was 6.34 µM and 17.2 µM. For the same compound, the GI50 [14] was 4.22 µM and 18.7 µM, the TGI [14] was > 100 µM and the GI50 [15] was > 100 µM and 47.1 µM. For the same compound, the TGI [15] was > 100 µM, the TGI [16] was > 100 µM and the GI50 [17] was 8.89 µM and 30.9 µM. For the same compound, the TGI [17] was > 100 µM, the TGI [18] was > 100 µM and the GI50 [19] was 5.26 µM and 15.8 µM. For the same compound, the TGI [19] was > 100 µM, the TGI [20] was > 100 µM and the GI50 [21] was 21.9 µM and 64.9 µM. For the same compound, the TGI [21] was > 100 µM, the GI50 [22] was 5.62 µM and 38.4 µM and the TGI [22] was > 100 µM. The GI50 [23] was 4.03 µM and 38.7 µM, the TGI [23] was > 100 µM and the GI50 [24] was 8.26 µM and 32.8 µM. The TGI [24] was > 100 µM, the TGI [25] was > 100 µM and the GI50 [26] was 3.79 µM and 10.1 µM. For the same compound, the TGI [26] was 21.5 µM and 52.4 µM, the GI50 [27] was 3.78 µM and 26.8 µM and the TGI [27] was > 100 µM. For the same compound, the GI50 [28] was 7.74 µM and 15.6 µM, the TGI [28] was > 100 µM and the GI50 [29] was 2.06 µM and 8.76 µM. The TGI [29] was 6.4 µM and 28.4 µM, the TGI [30] was > 100 µM and the GI50 [31] was > 100 µM and 27.8 µM. The TGI [31] was > 100 µM, the GI50 [32] was 4.68 µM and 31.4 µM and the TGI [32] was > 100 µM. For the same compound, the GI50 [33] was 3.36 µM and 14.9 µM, the TGI [33] was 27.7 µM and > 100 µM and the TGI [34] was > 100 µM. For the same compound, the GI50 [35] was 3.89 µM and 13.4 µM, the TGI [35] was 25.4 µM and > 100 µM and the TGI [36] was > 100 µM and 72 µM. For the same compound, the GI50 [37] was 10.9 µM and 43.4 µM, the TGI [37] was > 100 µM and the TGI [38] was > 100 µM. For the same compound, the TGI [39] was > 100 µM, the TGI [40] was > 100 µM and the GI50 [41] was 6.42 µM and 57 µM. For the same compound, the TGI [41] was > 100 µM, the GI50 [42] was 8.64 µM and 26.2 µM and the TGI [42] was > 100 µM. For the same compound, the GI50 [43] was 9.1 µM and 27.6 µM, the TGI [43] was > 100 µM and 95.9 µM and the GI50 [44] was 8.13 µM and 48.8 µM. For the same compound, the TGI [44] was > 100 µM, the TGI [45] was > 100 µM and the TGI [46] was > 100 µM. For the same compound, the TGI [47] was > 100 µM, the GI50 [48] was 3.75 µM and 18.2 µM and the TGI [48] was 49.5 µM and > 100 µM. The GI50 [49] was 8.83 µM and 25.2 µM, the TGI [49] was > 100 µM and the TGI [50] was > 100 µM. For the same compound, the TGI [51] was > 100 µM, the TGI [52] was > 100 µM and the GI50 [53] was 6.16 µM and 14.6 µM. For the same compound, the TGI [53] was > 100 µM, the GI50 [54] was 10.8 µM and > 100 µM and the TGI [54] was > 100 µM. For the same compound, the GI50 [55] was 13.7 µM and 40.7 µM, the TGI [55] was > 100 µM and the TGI [56] was > 100 µM. For the same compound, the TGI [57] was > 100 µM, the GI50 [58] was 2.01 µM and 9.68 µM and the TGI [58] was 41.6 µM and 70.7 µM. The TGI [59] was > 100 µM.

Reference: PubChem BioAssay (NCI)
